The values that follow come from article PMC6151788, “Biological Evaluation and Molecular Docking of Protocatechuic Acid from Hibiscus sabdariffa L. as a Potent Urease Inhibitor by an ESI-MS Based Method” (Molecules : A Journal of Synthetic Chemistry and Natural …, 2017).

Experiment [1] has as its target T1, Jack bean urease (JBU) (Canavalia ensiformis, UniProt P07374).
T1 construct: JBU-type III from Canavalia ensiformis
The experiment is described as follows: ESI-MS urea depletion assay with purchased jack bean urease; standard inhibitor. It is filed as biochemical.

Experiment [2] has as its target T1, Jack bean urease (JBU). The experiment is described as follows: ESI-MS urea depletion assay with purchased jack bean urease. It is filed as biochemical.

T1 sequence (P07374 whole entry, looked up): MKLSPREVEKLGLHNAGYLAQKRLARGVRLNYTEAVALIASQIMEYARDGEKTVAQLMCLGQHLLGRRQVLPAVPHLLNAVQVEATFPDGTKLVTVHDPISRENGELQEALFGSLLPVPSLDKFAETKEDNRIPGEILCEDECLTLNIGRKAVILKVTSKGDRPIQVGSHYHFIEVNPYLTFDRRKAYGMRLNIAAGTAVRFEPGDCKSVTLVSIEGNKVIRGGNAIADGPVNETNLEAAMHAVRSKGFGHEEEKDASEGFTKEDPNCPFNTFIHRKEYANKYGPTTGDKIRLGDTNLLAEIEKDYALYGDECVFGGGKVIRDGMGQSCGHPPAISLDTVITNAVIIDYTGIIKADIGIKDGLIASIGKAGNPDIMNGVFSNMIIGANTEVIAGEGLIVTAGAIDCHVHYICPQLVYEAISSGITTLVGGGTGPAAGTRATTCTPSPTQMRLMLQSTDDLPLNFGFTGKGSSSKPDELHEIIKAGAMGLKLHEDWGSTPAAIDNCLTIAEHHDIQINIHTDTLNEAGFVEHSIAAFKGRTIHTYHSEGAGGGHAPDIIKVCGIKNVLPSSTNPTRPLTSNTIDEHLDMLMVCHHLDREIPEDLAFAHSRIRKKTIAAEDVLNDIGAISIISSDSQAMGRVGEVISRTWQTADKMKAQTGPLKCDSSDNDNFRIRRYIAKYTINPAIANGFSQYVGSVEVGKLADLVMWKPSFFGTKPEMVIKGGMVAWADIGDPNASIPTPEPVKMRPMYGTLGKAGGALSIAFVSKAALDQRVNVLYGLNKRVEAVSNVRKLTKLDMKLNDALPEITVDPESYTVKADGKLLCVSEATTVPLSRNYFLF

As to `CC(=O)NO` [AHA, acetohydroxamic acid], it took 3.2 µM to reach half-maximal inhibition on Jack bean urease (JBU) [1] (IC50). Compound `O=C(O)c1ccc(O)c(O)c1` [PCA, 3,4-dihydroxybenzoic acid] registered an IC50 against Jack bean urease (JBU) [2] of 1.7 µM.
